One experiment concerns the target APC11/APC2 (Homo sapiens, UniProt Q9NYG5+Q9UJX6). Briefly: APC-11/APC-2 ligase assay (APC auto ubiquitination). The experiment is classed as biochemical. Conditions: APC assay. How it is done:
For the assays described below, the TRAF6/Uev1A/UBC13 assay is the biochemical plate-based assay of TRAF6 ligase activity using Ubc13 as the E2 enzyme. The gel-based assay is the biochemical solution-based TRAF6 ligase assay (by SDS-PAGE and Western blot) to confirm the plate-based ELISA assay. The APC assay is an assay which is another E3 ligase (APC2/APC11) biochemical assay.
E3 (His APC11/APC2— “APC”) auto ubiquitination was measured as described in U.S. patent application Ser. No. 09/826,312 (Publication No. U.S. 2002 0042083 A1), which is incorporated by reference in its entirety. Details of the protocol are described below. Activity in the presence of the compound was determined relative to a parallel control in which only DMSO was added. Values of the IC50 were typically determined using 6 or 8 different concentrations of the compound, although as few as 2 concentrations may be used to approximate the IC50 value.
Nickel coated 96 well plates (Pierce 15242) were blocked for 1 hour with 100 μl of blocking buffer at room temperature. The plates were washed 4 times with 225 μl of 1 […]PBS and 80 μl of the reaction buffer were added that contained 100 ng/well of Flag ubiquitin. To this, 10 μl of the test compound diluted in DMSO were added. After the test compound was added, 10 μl of E1 (human), E2 (Ubch5c), and APC in Protein Buffer was added to obtain a final concentration of 5 ng/well of E1, 20 ng/well of E2 and 100 ng/well of APC. The plates were shaken for 10 minutes and incubated at room temperature for 1 hour. After incubation, the plates were washed 4 times with 225 μl of 1×PBS and 100 μl/well of Antibody Mix were added to each well. The plates were incubated at room temperature for another hour after which they were washed 4 times with 225 μl of 1×PBS and 100 μl/well of Lumino substrate were added to each well. The luminescence was measured by using a BMG luminescence microplate reader. The Blocking Buffer (1% Casein in 1×PBS) was stored at 4° C. until use.
The reaction buffer consisted of 62.5 mM Tris pH 7.6 (Trizma Base—Sigma T 8524), 3 mM MgCl2 (Magnesium Chloride—Sigma M 2393), 1 mM DTT (Sigma D 9779), 2.5 mM ATP (Roche Boehringer Mann Corp. 635 316), 100 ng/well of Flag ubiquitin, 0.1% BSA (Sigma A 7906), and 0.05% Tween 20 (Sigma P 7949).
The Protein Buffer consisted of 20 mM Tris pH 7.6, 10% glycerol (Sigma G 5516) and 1 mM DTT.
The antibody mix consisted of 0.25% BSA (Sigma A 7906) in 1×PBS, 1/50,000 anti Flag (Sigma F 3165), 1/100,000 of anti Mouse IgG HRP (Jackson Imrunoresearch #115 035 146).
The substrate mix consisted of SuperSignal Substrate from Pierce (catalog number 37070ZZ) and was prepared by mixing 100 ml of the peroxide solution, 100 ml of the enhancer solution and 100 ml of Milli Q® water.

The target of a further experiment is T1, TRAF6/Uev1A/Ubc13 (Homo sapiens, UniProt Q9Y4K3).
T1 sequence (Q9Y4K3 1-522): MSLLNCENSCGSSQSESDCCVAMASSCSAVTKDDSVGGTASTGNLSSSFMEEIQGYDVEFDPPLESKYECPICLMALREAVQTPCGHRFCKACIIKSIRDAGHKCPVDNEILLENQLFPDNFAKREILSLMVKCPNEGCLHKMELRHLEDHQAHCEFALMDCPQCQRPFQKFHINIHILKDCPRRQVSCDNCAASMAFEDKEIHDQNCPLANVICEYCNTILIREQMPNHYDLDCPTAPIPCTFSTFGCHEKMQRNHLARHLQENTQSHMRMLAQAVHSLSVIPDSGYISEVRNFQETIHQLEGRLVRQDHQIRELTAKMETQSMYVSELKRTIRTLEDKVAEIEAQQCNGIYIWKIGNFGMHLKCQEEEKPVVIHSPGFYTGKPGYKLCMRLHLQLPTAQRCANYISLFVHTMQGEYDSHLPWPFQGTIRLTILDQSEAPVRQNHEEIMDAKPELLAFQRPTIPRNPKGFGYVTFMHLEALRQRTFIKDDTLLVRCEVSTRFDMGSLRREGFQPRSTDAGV
The experiment is described as follows: TRAF6/Uev1A/Ubc13 plate-based ubiquitin ligase assay. The experiment is classed as biochemical. A digest of the protocol:
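Ligase activity was read as luminescence from anti-Flag/HRP detection of Flag-ubiquitin bound to casein-blocked Ni-plates alongside His-ubiquitin after a 1 h room-temperature reaction. Buffer: 62.5 mM Tris pH 7.5, 6.25 mM MgCl2, 1.0 mM DTT, 2 μM ATP; E1, Uev1a/Ubc13 and TRAF6 added last to start. IC50s derived across compound concentrations.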

The test system of experiment [1] is ICAM-1 expression in A549 cells. The experiment is described as follows: ICAM assay (IL-1 induced ICAM-1/CD54 expression in A549 cells). It counts as cell-based, human. From the text: The expression of intercellular adhesion molecule (ICAM)-1 in endothelial cells is pivotal in supporting lymphocyte migration across the vascular endothelium. TNF/IL-1 induces the NF-kB pathway in which NF-kB acts as a transcription factor and activation of NF-kB induces ICAM expression. IkB inhibits NF-KB by binding to it and retaining NF-kB in the cytoplasm. Upon cytokine stimulation, several signaling molecule including TRAF6, IKKs, and TAK1 are activated which lead to the phosphorylation of IkB. Phosphorylated IkB is then ubiquitinated by the SCF complex and degraded by proteasome, thereby releasing NF-kB to translocate into the nucleus. In the nucleus, NF-kB binds to DNA and activates transcription of various genes that are involved in inflammation, cell survival, and apoptosis. The ICAM assay is a primary assay for HTS as well as a cell based assay for TRAF6 inhibitors.
The following materials are used 96-well plates; F12K complete medium that includes 10% FBS and 1% P/S (penicillin/streptomycin); 1×PBS; 5 ug/ml IL-1, Human CD54 (CALTAG Laboratory, Cat#MHCD5400-4); anti-mouse-IgG (Jackson Lab, Cat#115-035 146); and A549 cells.
Procedure. 10,000 A549 cells/well were seeded in 100 μl F12K complete medium in a 96-well white plate. The seeded plate was incubate at 37° C. incubator in 5% CO2 overnight. After the overnight incubation, 4 μl of diluted test compound was added and incubated for 1 hour at 37° C. After the 1 hour incubation, 4 μl of 25 ng/ml IL-1 was added to each well and the cells were stimulated at 37° C. for 4 hours.
After stimulation, the cells were stained with CD54 (1:1000 diluted with medium) and anti-mouse IgG (1:1100 diluted with medium) for 1 hour. Subsequently, the medium was removed and each well was washed with 200 μl of PBS three times. Detection of activity was performed by addition of 100 μl/well of lumino substrate.

16 molecules from patent US20050282818A1, “Ubiquitin ligase inhibitors” (Rigel Pharmaceuticals, Inc., priority 2004, published 2005) can be followed below.

What is called IC50 is the midpoint of a concentration-inhibition curve. Lower therefore signals higher potency.

Some results are limits rather than exact numbers.

APC11/APC2, sequence (Q9NYG5 whole entry): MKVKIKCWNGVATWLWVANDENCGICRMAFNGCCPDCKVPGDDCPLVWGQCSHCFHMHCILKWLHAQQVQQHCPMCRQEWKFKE
APC11/APC2, sequence (Q9UJX6 whole entry): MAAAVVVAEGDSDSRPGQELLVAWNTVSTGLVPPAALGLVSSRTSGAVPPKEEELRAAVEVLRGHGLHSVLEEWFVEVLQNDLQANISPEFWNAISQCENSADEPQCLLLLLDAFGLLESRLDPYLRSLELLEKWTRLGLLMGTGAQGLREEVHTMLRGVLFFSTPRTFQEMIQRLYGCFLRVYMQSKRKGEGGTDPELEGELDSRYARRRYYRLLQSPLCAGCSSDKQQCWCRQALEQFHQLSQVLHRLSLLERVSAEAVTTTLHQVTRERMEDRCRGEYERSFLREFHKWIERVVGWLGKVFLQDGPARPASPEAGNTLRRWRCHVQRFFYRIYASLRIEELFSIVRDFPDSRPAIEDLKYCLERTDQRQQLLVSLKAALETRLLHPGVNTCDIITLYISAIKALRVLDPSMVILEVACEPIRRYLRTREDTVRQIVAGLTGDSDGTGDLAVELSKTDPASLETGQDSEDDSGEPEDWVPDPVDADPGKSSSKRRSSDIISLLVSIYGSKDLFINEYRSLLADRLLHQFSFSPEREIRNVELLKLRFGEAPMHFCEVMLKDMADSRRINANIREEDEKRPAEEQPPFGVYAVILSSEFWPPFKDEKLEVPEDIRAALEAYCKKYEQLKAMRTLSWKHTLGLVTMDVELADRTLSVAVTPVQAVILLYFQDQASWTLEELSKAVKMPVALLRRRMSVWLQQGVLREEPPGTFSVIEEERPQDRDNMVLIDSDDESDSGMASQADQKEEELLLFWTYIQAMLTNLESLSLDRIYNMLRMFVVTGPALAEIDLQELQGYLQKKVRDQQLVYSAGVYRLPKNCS

With `N#Cc1cccnc1N1CCN(S(=O)(=O)c2c(Sc3cccc4cccnc34)ccc3nonc23)CC1` [compound 183, 2-(4-{[5-(quinolin-8-ylthio)-2,1,3-benzoxadiazol-4-yl]sulfonyl}piperazin-1-yl)nicotinonitrile], the IC50 against APC11/APC2 and against TRAF6/Uev1A/Ubc13 was 1 to 20 µM in each case.
Turning to `O=c1[nH]c2ccccc2n1C1CCN(S(=O)(=O)c2ccc(Sc3cccc4cccnc34)c3nonc23)CC1` [compound 190, 1-(1-{[7-(quinolin-8-ylthio)-2,1,3-benzoxadiazol-4-yl]sulfonyl}piperidin-4-yl)-1,3-dihydro-2H-benzimidazol-2-one], the IC50 against APC11/APC2 and against TRAF6/Uev1A/Ubc13 was 1 to 20 µM throughout.
Take `O=[N+]([O-])c1ccc(-c2cc(F)cc(F)c2)c2nonc12` [compound 308, 4-[(3,5-Difluoro)phenyl]-7-nitro-2,1,3-benzoxadiazole]: the IC50 in experiment [1] (Homo sapiens, A549, ICAM assay) is 1 to 20 µM; on APC11/APC2, 1 to 20 µM; against TRAF6/Uev1A/Ubc13, at least 20 µM.
Take `O=[N+]([O-])c1ccc(-c2ccc(C(F)(F)F)cc2)c2nonc12` [compound 311, 4-Nitro-7-[4-(trifluoromethyl)phenyl]-2,1,3-benzoxadiazole]: the IC50 in experiment [1] (Homo sapiens, A549, ICAM assay) was 1 to 20 µM; against APC11/APC2, 1 to 20 µM; on TRAF6/Uev1A/Ubc13 it was 1 to 20 µM.
For `O=[N+]([O-])c1ccc(-c2ccc(C(F)(F)F)cc2C(F)(F)F)c2nonc12` [compound 312, 4-[2,4-Bis(trifluoromethyl)phenyl]-7-nitro-2,1,3-benzoxadiazole], the IC50 is at least 20 µM in experiment [1] (Homo sapiens, A549, ICAM assay); 1 to 20 µM on APC11/APC2; 1 to 20 µM against TRAF6/Uev1A/Ubc13.
Consider `O=C1OC2(CCN(S(=O)(=O)c3ccc(Cl)c4nonc34)CC2)c2ccccc21` [compound 332, 1′-{[7-chloro-(2,1,3-benzoxadiazol-4-yl)]sulfonyl}-3H-spiro[2-benzofuran-1,4′-piperidin]-3-one], for which the IC50 in experiment [1] (Homo sapiens, A549, ICAM assay) was at least 20 µM; on APC11/APC2 it was 1 to 20 µM; against TRAF6/Uev1A/Ubc13, at least 20 µM.
As for `O=S(=O)(c1ccc(Sc2cccc3ccccc23)c2nonc12)N1CCC2(CC1)OCc1ccccc12` [compound 334, 1′-{(7-[naphth-1-ylthio]-2,1,3-benzoxadiazol-4-yl)}sulfonyl-3H-spiro[2-benzofuran-1,4′-piperidine]], the IC50 in experiment [1] (Homo sapiens, A549, ICAM assay) is 1 to 20 µM; against APC11/APC2 it was at least 20 µM; at TRAF6/Uev1A/Ubc13, at least 20 µM.
In the case of `COC(=O)c1ccc(NS(=O)(=O)c2ccc(Sc3ccc(O)cc3)c3nonc23)cc1` [compound 335, methyl 4-{[(7-{[4-hydroxyphenyl]thio}-2,1,3-benzoxadiazol-4-yl)sulfonyl]amino}benzoate], the IC50 is at least 20 µM in experiment [1] (Homo sapiens, A549, ICAM assay); at least 20 µM against APC11/APC2; at least 20 µM on TRAF6/Uev1A/Ubc13.
For `Clc1cc(Sc2cccc3cccnc23)cc2nonc12` [compound 336, 8-[(4-chloro-2,1,3-benzoxadiazol-6-yl)thio]quinoline], the IC50 in experiment [1] (Homo sapiens, A549, ICAM assay) is at least 20 µM; at APC11/APC2, at least 20 µM; on TRAF6/Uev1A/Ubc13, at least 20 µM.
`O=C1OC2(CCN(S(=O)(=O)c3c(Cl)ccc4nonc34)CC2)c2ccccc21` [compound 337, 1′-{[5-chloro-(2,1,3-benzoxadiazol-4-yl)]sulfonyl}-3H-spiro[2-benzofuran-1,4′-piperidin]-3-one]: the IC50 in experiment [1] (Homo sapiens, A549, ICAM assay) was under 1 µM; on APC11/APC2 it was at least 20 µM; against TRAF6/Uev1A/Ubc13, at least 20 µM.
With `O=S(=O)(Nc1ccccc1F)c1ccc(Cl)c2nonc12` [compound 345, 7-chloro-N-(2-fluorophenyl)-2,1,3-benzoxadiazole-4-sulfonamide], the IC50 in experiment [1] (Homo sapiens, A549, ICAM assay) was 1 to 20 µM; against APC11/APC2, at least 20 µM; on TRAF6/Uev1A/Ubc13, at least 20 µM.
For `O=S(=O)(Nc1ccccc1F)c1ccc(Nc2ccccc2F)c2nonc12` [compound 346, N-(2-fluorophenyl)-7-(2-fluorophenylamino)-2,1,3-benzoxadiazole-4-sulfonamide], the IC50 in experiment [1] (Homo sapiens, A549, ICAM assay) was at least 20 µM; on APC11/APC2 it was 1 to 20 µM; on TRAF6/Uev1A/Ubc13 it was at least 20 µM.
On to `CC(C)c1ccccc1NS(=O)(=O)c1ccc(Cl)c2nonc12` [compound 347, 7-chloro-N-(2-isopropylphenyl)-2,1,3-benzoxadiazole-4-sulfonamide], for which the IC50 in experiment [1] (Homo sapiens, A549, ICAM assay) was 1 to 20 µM; at APC11/APC2, at least 20 µM; on TRAF6/Uev1A/Ubc13, at least 20 µM.
Consider `COc1cc(NS(=O)(=O)c2ccc(F)c3nonc23)c(OC)cc1Cl` [compound 348, N-(4-chloro-2,5-dimethoxyphenyl)-7-fluoro-2,1,3-benzoxadiazole-4-sulfonamide], for which the half-inhibitory concentration (IC50) is 1 to 20 µM in experiment [1] (Homo sapiens, A549, ICAM assay); at least 20 µM on APC11/APC2; at least 20 µM against TRAF6/Uev1A/Ubc13.
As for `COc1cc(Nc2ccc(S(=O)(=O)Nc3cc(OC)c(Cl)cc3OC)c3nonc23)c(OC)cc1Cl` [compound 349, N-(4-chloro-2,5-dimethoxyphenyl)-7-([4-chloro-2,5-dimethoxyphenyl]amino)-2,1,3-benzoxadiazole-4-sulfonamide], the IC50 in experiment [1] (ICAM assay) is at least 20 µM; against APC11/APC2, 1 to 20 µM; against TRAF6/Uev1A/Ubc13, at least 20 µM.
`Cc1c(NS(=O)(=O)c2ccc(Cl)c3nonc23)cccc1C(F)(F)F` [compound 350, 7-chloro-N-(2-methyl-3-[trifluoromethyl]phenyl)-2,1,3-benzoxadiazole-4-sulfonamide]: the concentration for half-maximal inhibition (IC50) in experiment [1] (Homo sapiens, A549, ICAM assay) was 1 to 20 µM; against APC11/APC2 it was at least 20 µM; at TRAF6/Uev1A/Ubc13, at least 20 µM.
